Assay type in all cases: cell-based
One data set relates to DENV. In words: Antiviral activity against DENV in HEK293 cells. The conditions noted are these: Dengue virus; for EC90: HEK293, read-out: DENV (HEK293 cells) EC90; for log reduction at 10 µM: HEK293, read-out: DENV (HEK293 cells) VTR (virus titer reduction).
A further data set concerns VEEV. In words: microbe, parasite or virus in culture. The conditions noted are these: Venezuelan equine encephalitis virus, NHDF; for EC90: read-out: VEEV (NHDF cells) EC90; for log reduction at 10 µM: read-out: VEEV (NHDF cells) VTR (virus titer reduction).
Data set [1] is described as follows: Cytotoxicity (CC50) in HEK293 cells. Conditions: human, WNV. The method, then:
(§1) As used herein, “CC50” is intended to refer to the concentration of a substance (e.g., a compound or a drug) that is required for 50% reduction of cell viability. In one aspect, an CC50 can refer to the concentration of a substance that is required for 50% reduction (i.e., cytotoxicity) in vivo, as further defined elsewhere herein.
The antiviral activity against Alpharviruses evaluated in HEK293 cells (4 hours pre-incubation with compound before infected with virus) is shown in Table 2 below. VTR=Virus titer reduction in log at 10 μM concentration. NT: not tested, ND: not determined

The subject of another data set is CHIKV. In words: Antiviral activity against CHIKV in NHDF cells. Conditions: Chikungunya virus; for EC90: read-out: CHIKV (NHDF cells) EC90; for log reduction at 10 µM: read-out: CHIKV (NHDF cells) VTR (virus titer reduction).
A short description of data set [2]: Cytotoxicity (CC50) in NHDF cells. The conditions noted are these: human, CHIKV. The method, then:
as §1
VTR=Virus titer reduction in log at 10 μM concentration. NT: not tested, ND: not determined.

Another data set has as its system H1N1 strain. Nature of the data set: Antiviral activity against Influenza H1N1 strain in MDCK cells. Conditions: Influenza A virus; for log reduction at 20 µM: at 20 μM concentration, 4-6 hours pre-incubation, read-out: H1N1 strain (MDCK cells) VTR (virus titer reduction); for EC90: 4-6 hours pre-incubation with compound. How it is done:
(§2) The antiviral activity against Influenza viruses (H1N1 and H3N2 strains) evaluated in MDCK cells (4-6 hours pre-incubation with compound) shown in Table 5 below. VTR=Virus titer reduction in log at 20 μM concentration. NT: not tested, ND: not determined.

Another data set has as its system H3N2 strain. Nature of the data set: Antiviral activity against Influenza H3N2 strain in MDCK cells. Conditions: Influenza A virus; for log reduction at 20 µM: at 20 μM concentration, 4-6 hours pre-incubation, read-out: H3N2 strain (MDCK cells) VTR (virus titer reduction); for EC90: 4-6 hours pre-incubation with compound. The method, then:
as §2

A short description of data set [3]: Cytotoxicity (CC50) in MDCK cells. Conditions: dog, H1N1. How it is done: as §1, §2
In the next data set the test system is WNV. Nature of the data set: Antiviral activity against WNV in HEK293 cells. Conditions: West Nile virus; for EC90: HEK293, read-out: WNV (HEK293 cells) EC90; for log reduction at 10 µM: HEK293, read-out: WNV (HEK293 cells) VTR (virus titer reduction).
Another data set deals with ZIKA. Nature of the data set: Antiviral activity against ZIKA in HEK 293 cells. The conditions noted are these: Zika virus; for EC90: HEK293, read-out: ZIKA (HEK 293 cells) EC90; for log reduction at 10 µM: HEK293, read-out: ZIKA (HEK 293 cells) VTR (virus titer reduction).

Broadly, the EC90 is the concentration needed for an effect of 90%. For the compound `CCC(CC)COC(=O)[C@H](C)NP(=O)(OC[C@H]1O[C@@H](n2ncc(N)nc2=O)C(O)C1O)Oc1ccccc1` (single isomer, unassigned) [Compound 17, 2-ethylbutyl ((((2r,9,4r,5r)-5-(5-amino-3-oxo-1,2,4-triazin-2(3H)-yl)-3,4-dihydroxytetrahydrofuran-2-yl)methoxy)-(phenoxy)phosphoryl)-L-alaninate], the EC90 in the data set with DENV is above 30 µM. For the same compound, in the data set with VEEV, the EC90 came to 5 µM and the log reduction at 10 µM was 1.

Broadly, the CC50 is the concentration at which the toxic effect on the cells reaches its halfway point. On to `CC[C@@H](C)[C@@H](N)C(=O)OC[C@H]1O[C@@H](n2ncc(=O)[nH]c2=O)[C@H](O)[C@@H]1O` [Compound 12, ((2r,3s,4r,5r)-5-(3,5-dioxo-4,5-dihydro-1,2,4-triazin-2(3H)-yl)-3,4-dihydroxytetrahydrofuran-2-yl)methyl D-isoleucinate], for which the CC50 is 6.2 µM in [1] and above 40 µM in [2]. Besides, the concentration for an effect of 90% (EC90) was 0.5 µM in the data set with DENV and 0.89 µM with CHIKV. For the same compound, the log reduction at 10 µM amounted to 3.9 with DENV and 4.55 with CHIKV.

Take `CC[C@H](C)[C@@H](N)C(=O)OC[C@H]1O[C@@H](n2ncc(=O)[nH]c2=O)C(O)C1O` (stereo partly drawn) [Compound 13, ((2r,3s,4r,5r)-5-(3,5-dioxo-4,5-dihydro-1,2,4-triazin-2(3)-yl)-3,4-dihydroxytetrahydrofuran-2-yl)methyl D-alloisoleucinate]: the figures for the CC50 in [1] and in data set [2] were 6.7 µM and above 40 µM, respectively. For the same compound, the results for the EC90 in the data set with DENV and in the data set on CHIKV were 0.5 µM and 0.51 µM, respectively. The log reduction at 10 µM in the data set on DENV came to 4; in the data set on CHIKV, 4.3. Moreover, the log reduction at 20 µM in the data set with H1N1 strain amounted to 3.6; with H3N2 strain, 2.8.

Take `CC(C)C(=O)OC[C@H]1O[C@@H](n2ncc(=O)[nH]c2=O)[C@H](O)[C@@H]1O` [Compound 14, ((2r,3s,4r,5r)-5-(3,5-dioxo-4,5-dihydro-1,2,4-triazin-2(3H)-yl)-3,4-dihydroxytetrahydrofuran-2-yl)-methyl isobutyrate]: the CC50 was above 40 µM in [1] and above 20 µM in data set [3]. Besides, the EC90 is 5 µM in the data set with DENV, 3.6 µM in the data set on H1N1 strain and 16.4 µM with H3N2 strain. Besides, in the data set with DENV, the log reduction at 10 µM worked out at 2.1. Also, the log reduction at 20 µM with H1N1 strain and in the data set with H3N2 strain was 3.3 each time.

Consider `CCOP(=O)(OCC)OC[C@H]1O[C@@H](n2ncc(=O)[nH]c2=O)C(O)C1O` (stereo partly shown) [Compound 16, (2r,3s,4r,5r)-5-(3,5-dioxo-4,5-dihydro-1,2,4-triazin-2(3H)-yl)-3,4-dihydroxytetrahydrofuran-2-yl) methyl diethyl phosphate], for which the EC90 was above 10 µM in the data set on WNV; above 30 µM with DENV; above 10 µM in the data set on ZIKA; 10.1 µM in the data set with VEEV; above 100 µM in the data set with H1N1 strain. For the same compound, the CC50 in data set [1] was above 40 µM; in [3] it was above 100 µM. Further, in the data set on VEEV, the log reduction at 10 µM worked out at 1.05.

As for `CCCCCCCCCCCC(=O)Nc1cnn([C@@H]2O[C@H](CO)[C@@H](O)[C@H]2O)c(=O)n1` [Compound 19, N-(2-((2r,3r,4s,5r)-3,4-dihydroxy-5-(hydroxy-methyl)tetrahydrofuran-2-yl)-3-oxo-2,3-dihydro-1,2,4-triazin-5-yl)dodecanamide], the 90% effect concentration (EC90) in the data set on WNV is 0.7 µM; in the data set with DENV, 0.6 µM; with ZIKA, 1.1 µM; in the data set with H1N1 strain, 3.16 µM; in the data set with H3N2 strain, 12.1 µM. The log reduction at 10 µM with WNV amounted to 4; with DENV it was 2.1; in the data set with ZIKA, 2.6. The CC50 was above 40 µM in data set [1] and above 20 µM in [3]. The log reduction at 20 µM in the data set with H1N1 strain and in the data set on H3N2 strain was 3.3 each time.

As for `CCCC(=O)Nc1cnn([C@@H]2O[C@H](CO)[C@@H](O)[C@H]2O)c(=O)n1` [Compound 20, N-(2-((2R,3R,4S,5R)-3,4-dihydroxy-5-(hydroxymethyl)tetrahydro-furan-2-yl)-3-oxo-2,3-dihydro-1,2,4-triazin-5-yl)butyramide], the CC50 is 22.9 µM in data set [1] and above 20 µM in data set [3]. The EC90 in the data set on DENV was 1.2 µM; in the data set on ZIKA, 0.2 µM; with CHIKV, 9 µM; with H1N1 strain, 2.8 µM; in the data set with H3N2 strain, 3.5 µM. The log reduction at 10 µM in the data set with DENV worked out at 3; in the data set with ZIKA it was 2.8; in the data set with CHIKV, 1.5. Moreover, the log reduction at 20 µM in the data set with H1N1 strain turned out to be 2.9; with H3N2 strain, 2.7.

On to `O=C(Nc1cnn([C@@H]2O[C@H](CO)[C@@H](O)[C@H]2O)c(=O)n1)C1CC1` [Compound 21, N-(2-((2R,3R,4S,5R)-3,4-dihydroxy-5-(hydroxymethyl)tetrahydro-furan-2-yl)-3-oxo-2,3-dihydro-1,2,4-triazin-5-yl)cyclopropane-carboxamide], for which the EC90 turned out to be 0.4 µM in the data set with WNV; 0.34 µM with DENV; 0.2 µM in the data set on ZIKA; 4.9 µM in the data set with CHIKV; 2.8 µM in the data set on H1N1 strain; 3.9 µM in the data set on H3N2 strain. The log reduction at 10 µM in the data set on WNV turned out to be 4.5; with DENV it was 3.4; with ZIKA, 4; in the data set with CHIKV, 1.7. The CC50 in data set [1] was 18.9 µM; in data set [3], above 20 µM. Moreover, the log reduction at 20 µM in the data set with H1N1 strain was found to be 3.6; in the data set with H3N2 strain it was 3.

As for `O=C(Nc1cnn([C@@H]2O[C@H](CO)[C@@H](O)[C@H]2O)c(=O)n1)C1CCC1` [Compound 22, N-(2-((2R,3R,4S,5R)-3,4-dihydroxy-5-(hydroxymethyl)-tetrahydrofuran-2-yl)-3-oxo-2,3-dihydro-1,2,4-triazin-5-yl)-cyclobutanecarboxamide], the values for the CC50 in data set [1] and in data set [3] were 6.46 µM and 19 µM, respectively. The EC90 in the data set with DENV stood at 1 µM; in the data set on ZIKA it was 0.4 µM; in the data set with CHIKV, 8 µM; in the data set on H1N1 strain, 0.68 µM; in the data set with H3N2 strain it was 3.9 µM. Moreover, the log reduction at 10 µM was found to be 3.2 in the data set with DENV, 2.6 with ZIKA and 0.89 in the data set with CHIKV. Further, the log reduction at 20 µM in the data set on H1N1 strain amounted to 2.9; in the data set with H3N2 strain it was 3.

Take `CCOC(=O)Nc1cnn([C@@H]2O[C@H](CO)[C@@H](O)[C@H]2O)c(=O)n1` [Compound 23, ethyl (2-((2R,3R,4S,5R)-3,4-dihydroxy-5-(hydroxy-methyl)tetrahydrofuran-2-yl)-3-oxo-2,3-dihydro-1,2,4-triazin-5-yl)carbamate]: the results for the CC50 in data set [1] and in data set [3] were 22.4 µM and above 20 µM, respectively. In addition, the EC90 is 1.3 µM in the data set on DENV; 0.3 µM with ZIKA; above 10 µM in the data set on CHIKV; 3.78 µM with H1N1 strain; 6.3 µM with H3N2 strain. The log reduction at 10 µM is 3.3 with DENV, 3 with ZIKA and 0 in the data set with CHIKV. In addition, the log reduction at 20 µM in the data set with H1N1 strain is 3.6; with H3N2 strain, 2.

In data set [1], `CCCCCOC(=O)Nc1cnn([C@@H]2O[C@H](CO)[C@@H](O)[C@H]2O)c(=O)n1` [Compound 24, pentyl (2-((2R,3R,4S,5R)-3,4-dihydroxy-5-(hydroxy-methyl)tetrahydrofuran-2-yl)-3-oxo-2,3-dihydro-1,2,4-triazin-5-yl)carbamate] returned a CC50 of 20.4 µM. Moreover, the results for the EC90 with DENV, with ZIKA and in the data set with CHIKV were 1.2 µM, 0.3 µM and above 10 µM, respectively. The values for the log reduction at 10 µM in the data set with DENV, in the data set on ZIKA and in the data set with CHIKV were 3.3, 3.1 and 0, respectively. Moreover, the log reduction at 20 µM in the data set with H1N1 strain was 2.9; in the data set on H3N2 strain it was 1.6.

Consider `CC[C@H](C)[C@H](N)C(=O)OC[C@H]1O[C@@H](n2ncc(N)nc2=O)[C@H](O)[C@@H]1O` [Compound 25, ((2r,3s,4r,5r)-5-(5-amino-3-oxo-1,2,4-triazin-2(3H)-yl)-3,4-dihydroxytetrahydrofuran-2-yl)methyl L-isoleucinate], for which the CC50 in data set [1] and in data set [2] was above 40 µM each time. The EC90 worked out at 5.1 µM in the data set on DENV, 0.85 µM with CHIKV and 1.5 µM with VEEV. For the same compound, the log reduction at 10 µM is 2 in the data set on DENV, 2.58 in the data set with CHIKV and 2.17 with VEEV.

Source of the values: US11858956B2, “6-aza-nucleoside prodrugs as antiviral agents for treating virus infections” (Southern Research Institute, priority 2020, dated 2024).
